Reference: PMC8571487 (Biochemistry and Biophysics Reports, 2021)

Target: T1, NcFADS (Neurospora crassa, UniProt Q7SCU7)
T1 sequence (Q7SCU7 49-318): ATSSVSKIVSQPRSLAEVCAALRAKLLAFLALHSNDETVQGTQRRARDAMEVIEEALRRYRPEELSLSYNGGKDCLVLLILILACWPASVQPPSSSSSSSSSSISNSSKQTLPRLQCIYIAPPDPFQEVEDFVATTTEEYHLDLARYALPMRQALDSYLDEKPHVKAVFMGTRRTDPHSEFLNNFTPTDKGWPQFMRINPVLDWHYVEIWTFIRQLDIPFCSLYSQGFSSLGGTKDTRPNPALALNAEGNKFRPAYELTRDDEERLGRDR
Experiment: isothermal titration calorimetry
Type: binding

Row | SMILES | Kd
1 | Nc1ncnc2c1ncn2[C@@H]1O[C@H](COP(=O)(O)OP(=O)(O)OP(=O)(O)O)[C@@H](O)[C@H]1O [MgATP^2−] | 16.6 µM
2 | Cc1cc2nc3c(=O)[nH]c(=O)nc-3n(C[C@H](O)[C@H](O)[C@H](O)COP(=O)(O)O)c2cc1C [FMN] | 20.8 µM
